# According to US6586441B2, “Adenosine receptor ligands and their use in the treatment of disease” (Hoffman-La Roche Inc., priority 2000, dated 2003):
# Where a name gives a salt, the structure may show the parent alone. Read-outs that look alike come from different tables or passages of the source.
# Target: T1, human adenosine A2A receptor (Homo sapiens, UniProt P29274)
# T1 construct: expressed in transfected cells; host or cells: CHO cells, semliki forest virus expression system; membrane preparation
# T1 sequence (P29274 whole entry): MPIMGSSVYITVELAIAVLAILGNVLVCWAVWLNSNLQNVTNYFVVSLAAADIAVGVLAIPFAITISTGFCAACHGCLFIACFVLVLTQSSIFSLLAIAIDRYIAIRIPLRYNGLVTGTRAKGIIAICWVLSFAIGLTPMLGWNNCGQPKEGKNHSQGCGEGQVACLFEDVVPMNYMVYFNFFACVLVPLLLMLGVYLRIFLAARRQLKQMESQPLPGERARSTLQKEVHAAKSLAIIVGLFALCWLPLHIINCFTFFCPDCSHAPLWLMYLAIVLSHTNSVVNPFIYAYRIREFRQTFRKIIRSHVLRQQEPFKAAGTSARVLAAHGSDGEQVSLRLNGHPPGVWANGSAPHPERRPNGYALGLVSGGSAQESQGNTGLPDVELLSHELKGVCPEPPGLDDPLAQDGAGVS
# Test: Human adenosine A2A receptor [3H]-SCH-58261 binding assay
# Protocol: The gene encoding human adenosine A2A receptor was recombinantly introduced and expressed in chinese hamster ovary (CHO) cells using the semliki forest virus expression system. Cells were harvested, washed twice by centrifugation, homogenised and again washed by centrifugation. The final washed membrane pellet was suspended in a Tris (50 mM) buffer containing 120 mM NaCl, 5 mM KCl, 2 mM CaCl2 and 10 mM MgCl2 (pH 7.4) (buffer A). The [^3H]-SCH-58261 (Dionisotti et al., 1997, Br. J. Pharmacol. 121, 353; 1 nM) binding assay was carried out in 96-well plates in the presence of 2.5 μg of membrane protein, 0.5 mg of Ysi-poly-1-lysine SPA beads and 0.1 U adenosine deaminase in a final volume of 200 μl of buffer A. Non-specific binding was defined using xanthine amine congener (XAC; […]). Compounds were tested at 10 concentrations from 10 μM-0.3 nM. All assays were conducted in duplicate and repeated at least two times. Assay plates were incubated for 1 hour at room temperature before centrifugation and then bound ligand determined using a Packard Topcount scintillation counter. IC50 values were calculated using a non-linear curve fitting program and Ki values calculated using the Cheng-Prussoff equation.
# [1] = human A2a receptor, membranes of CHO cells, [3H]-SCH-58261, read-out: pKi (affinity to the human A2a receptor) (converted)
# [2] = human A2a receptor, membranes of CHO cells, [3H]-SCH-58261
Ki [1] [nM],Structure (SMILES),other results
3.02,"N#Cc1c(OCCc2ccccn2)cc(N)nc1-c1ccco1 [Example 384, 6-Amino-2-furan-2-yl-4-(2-pyridin-2-yl-ethoxy)-nicotinonitrile]",
3.55,"N#Cc1c(NCc2ccccc2N)nc(N)nc1-c1ccco1 [Example 304, 2-Amino-4-(2-amino-benzylamino)-6-furan-2-yl-pyrimidine-5-carbonitrile]",
5.89,"N#Cc1c(OCc2cccnc2)nc(N)nc1-c1ccco1 [Example 219, 2-Amino-4-furan-2-yl-6-(pyridin-3-ylmethoxy)-pyrimidine-5-carbonitrile]",
4.27,"Cc1cnc(COc2nc(N)nc(-c3ccc(Cl)o3)c2C#N)c(C)c1 [Example 526, 2-Amino-4-(5-chloro-furan-2-yl)-6-(3,5-dimethyl-pyridin-2-ylmethoxy)-pyrimidine-5-carbonitrile]",
1.95,"N#Cc1c(SCCc2ccccn2)nc(N)nc1-c1ccc(C(F)F)o1 [Example 538, 2-Amino-4-(5-difluoromethyl-furan-2-yl)-6-(2-pyridin-2-yl-ethylsulfanyl)-pyrimidine-5-carbonitrile]",
1.17,"N#Cc1c(SCCc2ccccn2)nc(N)nc1-c1cc(Br)co1 [Example 521, 2-Amino-4-(4-bromo-furan-2-yl)-6-(2-pyridin-2-yl-ethylsulfanyl)-pyrimidine-5-carbonitrile]",
9.33,"Nc1nc(OCc2ccccn2)c(Br)c(-c2ccco2)n1 [Example 168, 5-Bromo-4-furan-2-yl-6-(pyridin-2-ylmethoxy)-pyrimidin-2-yl-amine]",
4.57,"CCCCSc1nc(N)nc(-c2ccco2)c1C#N [Example 60, 2-Amino-4-butylsulfanyl-6-furan-2-yl-pyrimidine-5-carbonitrile]",
1.74,"Cc1cccnc1COc1nc(N)nc(-c2ccc(Cl)o2)c1C#N [Example 530, 2-Amino-4-(5-chloro-furan-2-yl)-6-(3-methyl-pyridin-2-yl-methoxy)-pyrimidine-5-carbonitrile]",
3.02,"N#Cc1c(OCc2ccccn2)cc(N)nc1-c1ccco1 [Example 355, 6-Amino-2-furan-2-yl-4-(pyridin-2-yl-methoxy)-nicotinonitrile]",
7.94,"N#Cc1c(NCCNc2ccccn2)nc(N)nc1-c1ccco1 [Example 330, 2-Amino-4-furan-2-yl-6-[2-(pyridin-2-ylamino)-ethylamino]-pyrimidine-5-carbonitrile]",
0.631,"N#Cc1c(NCc2ccccc2Br)nc(N)nc1-c1ccco1 [Example 359, 2-Amino-4-(2-bromo-benzylamino)-6-furan-2-yl-pyrimidine-5-carbonitrile]",
3.72,"Cc1cccc(CNc2nc(N)nc(-c3ccco3)c2C#N)c1 [Example 289, 2-Amino-4-furan-2-yl-6-(3-methyl-benzylamino)-pyrimidine-5-carbonitrile]",
2.75,"N#Cc1c(SCCc2ccccc2)nc(N)nc1-c1ccco1 [Example 233, 2-Amino-4-furan-2-yl-6-phenethylsulfanyl-pyrimidine-5-carbonitrile]",
1.38,"N#Cc1c(NCc2ccc3ccccc3n2)nc(N)nc1-c1ccco1 [Example 297, 2-Amino-4-furan-2-yl-6-[(quinolin-2-ylmethyl)-amino]-pyrimidine-5-carbonitrile]",
7.41,"N#Cc1c(OCCc2ccccn2)nc(N)nc1-c1cccc(F)c1 [Example 405, 2-Amino-4-(3-fluoro-phenyl)-6-(2-pyridin-2-yl-ethoxy)-pyrimidine-5-carbonitrile]",
3.47,"Cc1ccc(COc2nc(N)nc(-c3ccco3)c2C#N)cn1 [Example 381, 2-Amino-4-furan-2-yl-6-(6-methyl-pyridin-3-yl-methoxy)-pyrimidine-5-carbonitrile]",
6.31,"N#Cc1c(NCC2CCc3ccccc3N2)nc(N)nc1-c1ccco1 (racemic) [Example 299, (RS)-2-Amino-4-furan-2-yl-6-[(1,2,3,4-tetrahydro-quinolin-2-ylmethyl)-amino]-pyrimidine-5-carbonitrile]",
3.98,"N#Cc1c(SCc2ccccc2)nc(N)nc1-c1ccco1 [Example 52, 2-Amino-4-benzylsulfanyl-6-furan-2-yl-pyrimidine-5-carbonitrile]",
2.63,"Cc1ccc(COc2nc(N)nc(-c3ccco3)c2C#N)nc1 [Example 362, 2-Amino-4-furan-2-yl-6-(5-methyl-pyridin-2-yl-methoxy)-pyrimidine-5-carbonitrile]",
6.46,"N#Cc1c(NCCc2ccc(O)cc2)nc(N)nc1-c1ccco1 [Example 58, 2-Amino-4-furan-2-yl-6-[2-(4-hydroxy-phenyl)-ethylamino]-pyrimidine-5-carbonitrile]",
2.29,"N#Cc1c(NCc2cc3ccccc3cn2)nc(N)nc1-c1ccco1 [Example 367, 2-Amino-4-furan-2-yl-6-[(isoguinolin-3-yl-methyl)-amino]-pyrimidine-5-carbonitrile]",
3.72,"COc1ccccc1CNc1nc(N)nc(-c2ccco2)c1C#N [Example 293, 2-Amino-4-furan-2-yl-6-(2-methoxy-benzylamino)-pyrimidine-5-carbonitrile]",
7.76,"N#Cc1c(NCCSc2ccccc2)nc(N)nc1-c1ccco1 [Example 302, 2-Amino-4-furan-2-yl-6-(2-phenylsulfanyl-ethylamino)-pyrimidine-5-carbonitrile]",
3.89,"N#Cc1c(SCc2ccccn2)nc(N)nc1-c1ccco1 [Example 284, 2-Amino-4-furan-2-yl-6-(pyridin-2-ylmethylsulfanyl)-pyrimidine-5-carbonitrile]",

# Further lines, the compound ahead of its results:
Structure (SMILES),Ki [1] [nM],other results
"CC(C)Oc1nc(N)nc(-c2ccco2)c1C#N [Example 61, 2-Amino-4-furan-2-yl-6-isopropoxy-pyrimidine-5-carbonitrile]",6.92,
"N#Cc1c(-c2ccccc2)nc(N)nc1-c1ccco1 [Example 148, 2-Amino-4-furan-2-yl-6-phenyl-pyrimidine-5-carbonitrile]",,Ki: 6.46 nM
"Cc1cnc(COc2nc(N)nc(-c3ccco3)c2C#N)c(C)c1 [Example 401, 2-Amino-4-(3,5-dimethyl-pyridin-2-ylmethoxy)-6-furan-2-yl-pyrimidine-5-carbonitrile]",0.692,
"Nc1nc(OCCCc2ccccc2)c(Br)c(-c2ccco2)n1 [Example 230, 5-Bromo-4-furan-2-yl-6-(3-phenyl-propoxy)-pyrimidin-2-yl-amine]",1.66,
"Cc1cnc(COc2nc(N)nc(-c3cc(Br)co3)c2C#N)c(C)c1 [Example 533, 2-Amino-4-(4-bromo-furan-2-yl)-6-(3,5-dimethyl-pyridin-2-yl-methoxy)-pyrimidine-5-carbonitrile]",1.41,
"Cc1ccnc(CNc2nc(N)nc(C3=CCCO3)c2C#N)c1 [Example 464, 2-Amino-4-(4,5-dihydro-furan-2-yl)-6-[(4-methyl-pyridin-2-ylmethyl)-amino]-pyrimidine-5-carbonitrile]",,pKi (affinity to the human A2a receptor) [2]: 8.12
"N#Cc1c(OCCc2ccccc2)nc(N)nc1-c1ccccc1 [Example 104, 2-Amino-4-phenethyloxy-6-phenyl-pyrimidine-5-carbonitrile]",3.98,
N#Cc1c(NCc2ccc(C(F)(F)F)cc2)cc(N)nc1-c1ccco1 [Example 357],9.12,
"N#Cc1c(NCc2ccc(N)cc2)nc(N)nc1-c1ccco1 [Example 305, 2-Amino-4-(4-amino-benzylamino)-6-furan-2-yl-pyrimidine-5-carbonitrile]",8.91,
"Cc1cccnc1CNc1cc(N)nc(-c2ccco2)c1C#N [Example 376, 6-Amino-2-furan-2-yl-4-[(3-methyl-pyridin-2-yl-methyl)-amino]-nicotinonitrile]",4.57,
"C=Cc1ccc(CNc2nc(N)nc(-c3ccco3)c2C#N)cc1 [Example 374, 2-Amino-4-furan-2-yl-6-(4-vinyl-benzylamino)-pyrimidine-5-carbonitrile]",9.33,
"Nc1nc(OCCc2ccccc2)c(Cl)c(-c2ccco2)n1 [Example 322, 5-Chloro-4-furan-2-yl-6-phenethyloxy-pyrimidin-2-yl-amine]",9.77,
"Nc1nc(NCCCc2ccccc2)c(Br)c(-c2ccco2)n1 [Example 208, 5-Bromo-6-furan-2-yl-N4-(3-phenyl-propyl)-pyrimidine-2,4-diamine hydrochloride]",9.12,
"Nc1nc(OCc2ccccc2)c([N+](=O)[O-])c(-c2ccco2)n1 [Example 286, 4-Benzyloxy-6-furan-2-yl-5-nitro-pyrimidin-2-yl-amine]",9.55,
"N#Cc1c(NCc2ccccc2Br)nc(N)nc1-c1ccc(Br)o1 [Example 512, 2-Amino-4-(2-bromo-benzylamino)-6-(5-bromo-furan-2-yl)-pyrimidine-5-carbonitrile]",,pKi (affinity to the human A2a receptor) [2]: 8.88
"Nc1nc(SCc2ccccc2)c(Cl)c(-c2ccco2)n1 [Example 324, 4-Benzylsulfanyl-5-chloro-6-furan-2-yl-pyrimidin-2-yl-amine]",9.12,
"N#Cc1c(-c2ccco2)nc(N)nc1N1CCc2ccccc2C1 [Example 336, 2-Amino-4-(3,4-dihydro-1H-isoquinolin-2-yl)-6-furan-2-yl-pyrimidine-5-carbonitrile]",8.13,
"CSc1nc(N)nc(-c2ccc3c(c2)OCCO3)c1C#N [Example 23, 2-Amino-4-(2,3-dihydro-benzo[1,4]dioxin-6-yl)-6-methylsulfanyl-pyrimidine-5-carbonitrile]",9.12,
